{"source": "patent US20170056336A1", "about": "“CO-TARGETING ANDROGEN RECEPTOR SPLICE VARIANTS AND MTOR SIGNALING PATHWAY FOR THE TREATMENT OF CASTRATION-RESISTANT PROSTATE CANCER” (British Columbia Cancer Agency Branch, priority 2015, published 2017)", "biological_target": "T1, FL-AR (Homo sapiens, UniProt P10275, T878A)", "T1 sequence (P10275 1-920 T878A)": "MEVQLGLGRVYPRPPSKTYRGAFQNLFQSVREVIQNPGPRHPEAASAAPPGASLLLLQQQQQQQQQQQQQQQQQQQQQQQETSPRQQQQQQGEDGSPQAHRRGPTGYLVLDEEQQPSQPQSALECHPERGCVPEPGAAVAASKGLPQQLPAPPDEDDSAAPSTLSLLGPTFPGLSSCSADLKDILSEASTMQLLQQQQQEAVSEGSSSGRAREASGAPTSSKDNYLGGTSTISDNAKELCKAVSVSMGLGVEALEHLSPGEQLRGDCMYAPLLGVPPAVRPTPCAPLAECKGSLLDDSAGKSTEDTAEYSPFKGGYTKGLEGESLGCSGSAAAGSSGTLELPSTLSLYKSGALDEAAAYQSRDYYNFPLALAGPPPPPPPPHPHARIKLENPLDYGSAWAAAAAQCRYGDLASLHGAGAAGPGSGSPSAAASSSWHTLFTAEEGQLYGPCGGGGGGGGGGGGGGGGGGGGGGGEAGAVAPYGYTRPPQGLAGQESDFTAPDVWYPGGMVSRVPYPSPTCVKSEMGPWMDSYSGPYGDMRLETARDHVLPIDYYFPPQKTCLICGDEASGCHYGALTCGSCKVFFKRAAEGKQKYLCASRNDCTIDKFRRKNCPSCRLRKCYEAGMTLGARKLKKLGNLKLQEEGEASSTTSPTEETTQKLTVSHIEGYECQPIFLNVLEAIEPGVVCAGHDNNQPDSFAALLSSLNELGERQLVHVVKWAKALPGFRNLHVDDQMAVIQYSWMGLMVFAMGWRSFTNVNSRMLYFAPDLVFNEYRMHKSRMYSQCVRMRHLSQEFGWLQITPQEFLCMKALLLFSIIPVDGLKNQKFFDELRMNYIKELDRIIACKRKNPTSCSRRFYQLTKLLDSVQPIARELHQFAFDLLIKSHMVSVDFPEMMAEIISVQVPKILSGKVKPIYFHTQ", "test": "PSA-, ARR3-, PB-luciferase AR reporter assay in LNCaP cells"}
{"smiles": "Cn1c(=O)n(-c2ccc(C(C)(C)C#N)cc2)c2c3cc(-c4cnc5ccccc5c4)ccc3ncc21", "note": "[BEZ-235, 2-methyl-2-[4-(3-methyl-2-oxo-8-quinolin-3-ylimidazo[4,5-c]quinolin-1-yl)phenyl]propanenitrile]", "values": [{"measurement": "activity of FL-AR in response to androgen", "result": "did not enhance"}]}
